# Measurements published in article PMC6838142, “Nano-Antagonist Alleviates Inflammation and Allows for MRI of Atherosclerosis” (Nanotheranostics, 2019).
# Key:
# [1] = tested on: BMDMs; test: CCL2-induced actin polymerization in BMDMs; assay type: cell-based; conditions: 6 h pre-treatment, 500 nM recombinant mouse CCL2; 5 µM; phalloidin staining
# Experimental: Next, cells were washed with PBS and recombinant mouse CCL2 was added to a final concentration of 500 nM. Then, cells were incubated for varying times (indicated in Figure 2G), after which they were immediately placed on ice and washed 3 times with cold PBS. Actin polymerization was then visualized following staining with phalloidin Alexa Fluor 633, according to the manufacturer's instructions.
# [2] = tested on: RAW cells; test: Fluorescence microscopy of binding and uptake in RAW cells; assay type: cell-based, mouse
# Excerpt: Figure 1 Screening identifies CCTV as an anti-inflammatory nanoparticle with high affinity for CC chemokine receptor 2. A) A screening of a small library of nanoparticles in lipopolysaccharide (LPS)-stimulated macrophage reporter cells (RAW-Blue) identified CCTV, which downregulates nuclear factor-kappa B (NF-κB) activity. Each point on the plot represents a relative activity of NF-κB (X-coordinate) and corresponding nanoparticle content per mg of cell protein (Y-coordinate) calculated from nanoparticle fluorescence. […] Dexamethasone (Dex) is an NF-κB inhibitor and was used as a positive control. Vehicle-treated and unstained (US) cells served as a negative control. B) CCTV binding to the cell surface was validated in RAW cells using fluorescence microscopy. The cells were stained at 4 °C or room temperature for 30 min with CCTV or vehicle nanoparticles (sudo-colored green). Lysosomes were visualized after staining with LAMP1 antibody (red). Nuclei were stained using Hoechst 33342 (blue). C) The uptake of CCTV was inhibited in the presence of 5 µM cytochalasin D (cyto D). DMSO served as vehicle control. Calcein AM was used for whole cell staining. D) CCTV binding to a receptor on the cell surface was studied by flow cytometry in the presence and absence of the excess (1 mM) of the free peptide. E) The Basic Local Alignment Search Tool (BLAST) analysis determined that CCTV peptide sequence repeats in mouse and human CC chemokine receptor family. Only the first 50 amino acids are shown. F) Chemical structure of CCTV and its mirror analog VTCC and their possible conjugation strategies that include N- (N-term.) and C-terminus (C-term.) as well as sulfhydryl attachment. […]
# For a targeted nanotherapy to be effective, the nanoparticles must have affinity to a specific cell type, usually determined by cell surface binding. […] Thus, we used the mouse macrophage reporter cell line RAW-Blue that allowed for monitoring activity of Nuclear Factor-kappa B (NF-kB) and also enabled In vitro quantitation of nanoparticle binding to the cell surface. […]
# [3] = tested on: NLRP3 inflammasome (J774 cells); test: Inflammasome activation immunoblot in J774 cells; assay type: cell-based, mouse; conditions: additional activator ATP 1 mM
# Experimental: BMDMs or J774 cells were plated in 48-well plates at 2 x 10^5 per well. Next day, the medium was changed to Opti-MEM (100 μL per well) without serum and the cells were allowed to equilibrate for 3 h. Next, the cells were pretreated with the indicated concentrations of nanoparticles or controls for 3 h followed by the addition of LPS to some wells to the final LPS concentration of 50 ng/mL. LPS priming continued for another 2 h, following which DMSO (vehicle), Nigericin (5 μM) or adenosine triphosphate (ATP) (1 mM) were added to some wells. Cells were incubated for an additional 30 min and cell culture supernatants were collected on ice. Cells were washed with cold PBS once and lysed/processed as described in immunoblotting section. The supernatants (90 μL) were mixed with 10 μL of 10x SDS loading buffer (10% SDS, 10% Ficoll 400, 0.5 M Tris pH 6.8, 0.5 M DTT, and 0.001% bromophenol blue) and heat-denatured as described in the immunoblotting section. Supernatants were loaded at 45 μL per lane on Bio Rad TGX Criterion 12+2 gels (4-20%) and lysates were loaded at 15 μg per lane. Immunoblotting was performed as described above.
# Supplementary Figure S10. Inflammasome activation assays in J774 cells. The cells were treated as described in Methods and main text Figure 5 legend, plus additional inflammasome activator ATP that was added at 1 mM. Immunoblot was performed as described in methods. […]
# [4] = tested on: cytokines in cell culture supernatants; test: Cytokine analysis, Luminex panel; assay type: cell-based, mouse
# Experimental: Cytokines were analyzed by EVE Technologies (https://www.evetechnologies.com) using the Luminex 31-Plex kit. Cell culture supernatants were diluted twice with PBS and provided in biological triplicates to EVE Technologies via overnight shipment in dry ice. Individual IL-1β and TNFɑ assays were performed using Perkin Elmer AlphaLISA kits, as per Supplementary Table S1 and vendor instructions.
# [5] = tested on: CCR2hiLy6Chi inflammatory cells in blood of ApoE-/- mice; test: Flow cytometry of blood immune cells after injection; assay type: in vivo, mouse
# Experimental: Twenty-four hours after nanoparticle injection (see above), mice were euthanized and whole blood was collected via cardiac puncture. The cells were separated from plasma via centrifugation at 2500 rpm for 25 min at 4 °C and white blood cells were isolated after lysis of red blood cells with ACK lysis buffer. The cells were resuspended in 1% FBS in PBS (FACS buffer) on ice and stained with fluorophore-conjugated antibodies detecting CD11b, CD11c, CCR2, and Ly6C (Supplementary Table S1) for 30 min at room temperature. Cells were washed with FACS buffer three times and one time with PBS, and then fixed in 2% paraformaldehyde in PBS, pH 7.4. Samples were run on a Becton Dickinson LSR II flow cytometer and cell surface expression analysis of indicated markers was performed using FlowJo software.
substance,measurement,setting,value
CCTV,actin polymerization,[1],significantly inhibited actin polymerization
same,uptake in presence of cytochalasin D,"[2]; 5 µM cytochalasin D, DMSO vehicle control",inhibited
same,cell-surface binding at 4oC,"[2]; RAW cells, 4 °C, 30 min, vs vehicle nanoparticles",rapidly bound to the cell surface
same,uptake at room temperature,"[2]; RAW cells, room temperature, LAMP1 co-staining",mediated by endocytosis
same,inflammasome deactivation in J774 cells,[3],reproducible in J774 cells
same,levels of 14 cytokines in supernatants,[4]; Luminex inflammation array,did not detect significant differences among 14 different cytokines
same,IL-6 cytokine,[4]; not statistically significant,trend in CCTV-induced downregulation
same,IL-12p40 cytokine,[4]; not statistically significant,though to a lesser extent
same,accumulation in CCR2-positive blood macrophage subpopulations,"[5]; 100 mg/kg, 24 h, three ApoE-/- mice/group",selectively accumulated in macrophage subpopulations positive for CCR2
same,nanoparticle-positive CCR2hiLy6Chi cells,"[5]; 100 mg/kg, 24 h, three ApoE-/- mice/group, vs VTCC",an increased number of these cells were CCTV positive compared to VTCC
same,number of macrophages that engulfed nanoparticles,"[5]; Supplementary Figure S9, CCTV vs VTCC",not due to a different number of macrophages that engulfed nanoparticles
